Results reported in US12195427B2, “MASP-2 inhibitors and methods of use” (priority 2018, dated 2025).
Structures can show the parent of a compound that is named as a salt.

Molecular target: MASP-2 CCP2-SP (Homo sapiens (Human), UniProt O00187)
Assay: MASP-2 co-crystallization, X-ray crystallography and structure analysis (H-bonds, van der Waals contacts);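 as to Ligand-pharmacophore element distance, pharmacophore element C2: distance from averaged pharmacophore element to bound ligand; missing value means element absent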;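 as to Ligand-pharmacophore element distance, pharmacophore element C3: distance from averaged pharmacophore element to bound ligand; missing value means element absent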;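 as to Ligand-pharmacophore element distance, pharmacophore element C4: distance from averaged pharmacophore element to bound ligand; missing value means element absent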;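 as to Ligand-pharmacophore element distance, pharmacophore element C5: distance from averaged pharmacophore element to bound ligand; missing value means element absent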
Set-up: van der Waals contact distance, MASP-2 HIS 483 atom CD2 / van der Waals contact distance, MASP-2 HIS 483 atom NE2 / van der Waals contact distance, SER 654 C to compound atom / van der Waals contact distance, SER 654 O to compound atom / van der Waals contact distance, TRP 655 C to compound atom / van der Waals contact distance, MASP-2 GLY 528 atom CA / van der Waals contact distance TRP 655 atom CZ3 / van der Waals contact distance TRP 655 atom N / van der Waals contact distance TRP 655 atom CE3 / van der Waals contact distance GLY 656 atom C / van der Waals contact distance GLY 656 atom CA / van der Waals contact distance GLY 656 atom O / van der Waals contact distance, MASP-2 TYR 607 atom CD1 / van der Waals contact distance, MASP-2 PRO 606 atom O / d(C3,CA1) / d(CA1,N1)2 / d(H4,O1) / d(H4,O2) / d(O1,O2) / d(CA1,O2) / d(CA6,O1) / d(CA6,O2) / d(CA1,C5) / d(O2,H3) / d(N2,C2) / d(CA5,N2) / d(N2,C4) / d(N2,C6) / d(N2,CA3) / d(N2,O3) / d(O4,H2): unit not given beside the values
Details: for Ligand-pharmacophore element distance, pharmacophore element C2 / Ligand-pharmacophore element distance, pharmacophore element C3 / Ligand-pharmacophore element distance, pharmacophore element C4 / Ligand-pharmacophore element distance, pharmacophore element C5 / Ligand-pharmacophore element distance, pharmacophore element C6 / Ligand-pharmacophore element distance, pharmacophore element C7 / Ligand-pharmacophore element distance, pharmacophore element CA1 / Ligand-pharmacophore element distance, pharmacophore element CA2 / Ligand-pharmacophore element distance, pharmacophore element CA3 / Ligand-pharmacophore element distance, pharmacophore element CA4 / Ligand-pharmacophore element distance, pharmacophore element CA5 / Ligand-pharmacophore element distance, pharmacophore element CA6: Table A4-1
Summary of the method: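 Soaked crystals of recombinant CCP2-SP (E. coli) yield the structures, phased by molecular replacement on 1Q3X pieces. Hydrophobic or nonbonded contacts can also cover atom pairs that are potential hydrogen bonds.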

[1] = Table A2-7: SER 628 (CB, O, OG)
[2] = Table A5-1 pharmacophore: distance between elements, S2/S1 region
[3] = Table A5-2 pharmacophore distance, S3/S4 region
[4] = Table A7-1, between pharmacophore elements of the bound compound
[5] = Table A7-2, between pharmacophore elements of the bound compound
[6] = Table A8-6, nearest protein atom in cell to the left

Chain of MASP-2 CCP2-SP (O00187 445-686): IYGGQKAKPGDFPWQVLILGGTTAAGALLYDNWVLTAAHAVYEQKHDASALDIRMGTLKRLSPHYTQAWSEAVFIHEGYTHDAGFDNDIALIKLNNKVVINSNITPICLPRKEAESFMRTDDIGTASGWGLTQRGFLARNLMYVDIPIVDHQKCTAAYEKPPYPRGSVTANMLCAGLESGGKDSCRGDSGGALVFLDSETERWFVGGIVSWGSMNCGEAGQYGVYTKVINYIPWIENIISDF
Chain of MASP-2 CCP2-SP (O00187 364-432 partner): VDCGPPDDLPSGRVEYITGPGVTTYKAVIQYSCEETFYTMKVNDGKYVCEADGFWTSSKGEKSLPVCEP

Cc1nc(N)ccc1CNC(=O)[C@H](C)NC(=O)[C@H]1C[C@H](Cc2cc(Cl)cc(Cl)c2)CN1 [compound 1435, (2R,4S)—N—((S)-1-(((6-Amino-2-methylpyridin-3-yl)methyl)amino)-1-oxopropan-2-yl)-4-(3,5-dichlorobenzyl)pyrrolidine-2-carboxamide Dihydrochloride]
H-bond distance to MASP-2 ASP 627 atom OD2 (Table A1 (H-Bonds), ASP 627 OD2): 3.32
H-bond distance to MASP-2 GLY 656 atom N (Table A1 (H-Bonds), GLY 656 N): 3.26
H-bond distance to MASP-2 GLY 656 atom O (Table A1 (H-Bonds), GLY 656 O): 2.79
H-bond distance to MASP-2 SER 654 atom O (Table A1 (H-Bonds), SER 654 O): 3.01
H-bond distance to MASP-2 SER 657 atom O (Table A1 (H-Bonds), SER 657 O): 2.84
van der Waals contact distance, MASP-2 amino acid atom to compound atom (Table A2): 3.83
van der Waals contact distance, MASP-2 HIS 483 atom CD2 (Table A2-1): 3.7
van der Waals contact distance, MASP-2 HIS 483 atom NE2 (Table A2-1): 3.6
van der Waals contact distance, MASP-2 PHE 529 atom CD2 (Table A2-3): 3.61
van der Waals contact distance, MASP-2 amino acid atom to compound atom [1]: 3.67
van der Waals contact distance, TRP 655 CA to compound atom (Table A2-12): 3.41
Ligand-pharmacophore element distance, pharmacophore element C2: 0
Ligand-pharmacophore element distance, pharmacophore element C3: 0.15
Ligand-pharmacophore element distance, pharmacophore element C4: 1.37
Ligand-pharmacophore element distance, pharmacophore element C5: 0
Ligand-pharmacophore element distance, pharmacophore element C6: 0.38
Ligand-pharmacophore element distance, pharmacophore element C7: 0
Ligand-pharmacophore element distance, pharmacophore element CA1: 0.6
Ligand-pharmacophore element distance, pharmacophore element CA2: 0.8
Ligand-pharmacophore element distance, pharmacophore element CA3: 0
Ligand-pharmacophore element distance, pharmacophore element CA4: 0
Ligand-pharmacophore element distance, pharmacophore element CA5: 0
Ligand-pharmacophore element distance, pharmacophore element CA6: 0
d(C3,CA1) [2]: 2.85
d(CA1,N1)2 [2]: 1.38
d(CA1,O1) [2]: 4.36
d(CA1,O2) [2]: 3.86
d(H4,O1) [2]: 4.37
d(H4,O2) [2]: 3.79
d(O1,O2) [2]: 3.37
d(N2,C4) [3]: 8.24
d(N2,C4)4 [3]: 8.24
d(N2,C6) [3]: 7.51
d(N2,CA2) [3]: 6.00
d(O2,H3) [3]: 4.33
d(O2,N2) [3]: 2.62
a(C3, CA1, O1) (Table A6-1 pharmacophore angle): 149.49
a(CA1, O1, O2) (Table A6-1 pharmacophore angle): 106.19
a(O1, O2, H4) (Table A6-1 pharmacophore angle): 131.96
a(N1, CA1, O1) b) (Table A6-1 pharmacophore angle, Methyl-amino-pyridine compounds): 173.74
a(O1, O2, H3) (Table A6-2 pharmacophore angle): 147.24
a(O1, O2, N2) (Table A6-2 pharmacophore angle): 139.75
a(O2, N2, C4) (Table A6-2 pharmacophore angle): 164.21
a(O2, N2, C4) 2 (Table A6-2 pharmacophore angle): 121.06
a(O2, N2, C6) (Table A6-2 pharmacophore angle): 99.38
a(O2, N2, CA2) (Table A6-2 pharmacophore angle): 157.86
Pharmacophore torsion angle a(C3, CA1, O1, H4) [4]: 24.44
Pharmacophore torsion angle a(H4, O1, O2, H3) [4]: 51.39
Pharmacophore torsion angle a(H4, O1, O2, N2) [4]: 136.22
Pharmacophore torsion angle a(N1, CA1, O1, H4) [4]: 1.43
Pharmacophore torsion angle a(O1, H4, O2, CA1) [4]: −83.48
Pharmacophore torsion angle a(O1, O2, N2, C6) [5]: 137.30
Pharmacophore torsion angle a(O1, O2, N2, CA2) [5]: 123.48

O=c1oc(-c2ccccc2[N+](=O)[O-])nc2ccccc12 [compound 14]
H-bond distance to MASP-2 ALA 469 atom N (Table A1 (H-Bonds), ALA 469 N): 3
H-bond distance to MASP-2 HIS 483 atom NE2 (Table A1 (H-Bonds), HIS 483 NE2): 2.89
van der Waals contact distance, MASP-2 ALA 468 atom C (Table A2-1): 3.69
van der Waals contact distance, MASP-2 ALA 468 atom CA (Table A2-1): 3.52
van der Waals contact distance, MASP-2 ALA 468 atom CB (Table A2-1): 3.52
van der Waals contact distance, MASP-2 ALA 469 atom CA (Table A2-1): 3.89
van der Waals contact distance, MASP-2 HIS 483 atom CD2 (Table A2-1): 3.72
van der Waals contact distance, MASP-2 PHE 529 atom CE1 (Table A2-3): 3.21
van der Waals contact distance, MASP-2 amino acid atom to compound atom [1]: 3.65
van der Waals contact distance, VAL 653 CB to compound atom (Table A2-11): 3.77
van der Waals contact distance, TRP 655 C to compound atom (Table A2-12): 3.72
van der Waals contact distance, TRP 655 CA to compound atom (Table A2-12): 3.69
van der Waals contact distance, MASP-2 amino acid atom to compound atom (Table A2 section before Table A2-8): 3.89
Ligand-pharmacophore element distance, pharmacophore element C2: 0
Ligand-pharmacophore element distance, pharmacophore element C3: 0
Ligand-pharmacophore element distance, pharmacophore element C4: 0
Ligand-pharmacophore element distance, pharmacophore element C5: 0
Ligand-pharmacophore element distance, pharmacophore element C6: 0
Ligand-pharmacophore element distance, pharmacophore element C7: 0
Ligand-pharmacophore element distance, pharmacophore element CA1: 1.47
Ligand-pharmacophore element distance, pharmacophore element CA2: 0
Ligand-pharmacophore element distance, pharmacophore element CA3: 0
Ligand-pharmacophore element distance, pharmacophore element CA4: 0
Ligand-pharmacophore element distance, pharmacophore element CA5: 0
Ligand-pharmacophore element distance, pharmacophore element CA6: 1.68
Ligand-pharmacophore element distance, pharmacophore element H1 (Table A4-2, element H1): 0
Ligand-pharmacophore element distance, pharmacophore element H2 (Table A4-2, element H2): 4.66
Ligand-pharmacophore element distance, pharmacophore element H3 (Table A4-2, element H3): 0
Ligand-pharmacophore element distance, pharmacophore element H4 (Table A4-2, element H4): 1.82
Ligand-pharmacophore element distance, pharmacophore element N1 (Table A4-2, element N1): 0
Ligand-pharmacophore element distance, pharmacophore element N2 (Table A4-2, element N2): 0
Ligand-pharmacophore element distance, pharmacophore element O1 (Table A4-2, element O1): 3.89
Ligand-pharmacophore element distance, pharmacophore element O2 (Table A4-2, element O2): 0.46
Ligand-pharmacophore element distance, pharmacophore element O3 (Table A4-2, element O3): 0
Ligand-pharmacophore element distance, pharmacophore element O4 (Table A4-2, element O4): 0
d(CA1,O1) [2]: 3.49
d(CA1,O2) [2]: 3.51
d(CA6,O1) [2]: 7.02
d(CA6,O2) [2]: 3.51
d(H4,O1) [2]: 3.02
d(H4,O2) [2]: 3.13
d(O1,O2) [2]: 5.28
a(CA1, O1, O2) (Table A6-1 pharmacophore angle): 139.05
a(O1, CA6, O2) (Table A6-1 pharmacophore angle): 75.74
a(O1, O2, H4) (Table A6-1 pharmacophore angle): 61.95
Pharmacophore torsion angle a(CA6, O1, H4, O2) [4]: 43.29
Pharmacophore torsion angle a(O1, H4, O2, CA1) [4]: 38.29
Pharmacophore protein distance to MET_658 (first MET_658 column) (Table A8-6, 6th residue column, nearest protein atom in cell to the left): 2.13
Pharmacophore protein distance to MET_658 (second MET_658 column) (Table A8-6, 9th residue column, nearest protein atom in cell to the left): 3.80
Pharmacophore protein distance to GLY_528 [6]: 3.51
Pharmacophore protein distance to PHE_529 [6]: 2.77
Pharmacophore protein distance to PRO_608 [6]: 4.32
Pharmacophore protein distance to SER_611 [6]: 2.64
Pharmacophore protein distance to TRP_655 (Table A8-6, pharmacophore elements C6, CA3, O3, H1, nearest protein atom in cell to the left): 3.76
